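Interpolation was linear, between the two tested concentrations surrounding the appropriate level; five concentrations were tested over 48 hours in 96-well plates. Here, GI50 denotes the concentration required for 50% inhibition of growth. TGI: concentration producing complete growth inhibition.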
What was measured:
Assay in all cases: NCI anticancer screen, dose series, 48 h
BT-549 breast = system: BT-549 breast
HOP-62 NSCLC = system: HOP-62 NSCLC
HS 578T breast = system: HS 578T breast
K-562 leukemia = system: K-562 leukemia
KM12 colon = system: KM12 colon
MCF7 breast = system: MCF7 breast
NCI-H226 lung = system: NCI-H226 lung
OVCAR-5 ovarian = system: OVCAR-5 ovarian
SR leukemia = system: SR leukemia

Row | SMILES | TGI (BT-549 breast) | TGI (HOP-62 NSCLC) | TGI (HS 578T breast) | TGI (K-562 leukemia) | TGI (KM12 colon) | TGI (MCF7 breast) | TGI (NCI-H226 lung) | TGI (OVCAR-5 ovarian) | TGI (SR leukemia) | GI50 (BT-549 breast) | GI50 (KM12 colon) | GI50 (MCF7 breast) | GI50 (OVCAR-5 ovarian) | GI50 (SR leukemia) | GI50 (HOP-62 NSCLC) | GI50 (HS 578T breast) | GI50 (NCI-H226 lung)
1 | COCN1CCN=c2c1c1c3c(c4ccccc4n23)CCC1 | > 100 µM | > 100 µM | > 100 µM | > 100 µM | > 100 µM | > 100 µM | > 100 µM | > 100 µM | > 100 µM | – | – | – | – | – | – | – | –
2 | C[N+](C)([O-])CCCNc1c2ccccc2nc2cccc([N+](=O)[O-])c12 | 2.91 µM | 3.23 µM | 7.63 µM | > 100 µM | 4.36 µM | 0.623 µM | 1.39 µM | 1.57 µM | – | – | – | – | – | – | – | – | –
3 | N/N=C1/C(=N/O)CCc2nonc21 | – | > 100 µM | > 100 µM | > 100 µM | > 100 µM | > 100 µM | > 100 µM | > 100 µM | > 100 µM | – | – | – | – | – | – | – | –
4 | Cn1c(-c2ccc[se]2)ccc1-c1ccc(CO)[se]1 | > 100 µM | – | > 100 µM | > 100 µM | > 100 µM | > 100 µM | 0.884 µM | – | 53.5 µM | – | – | – | – | – | – | – | –
5 | COc1ccc(Oc2nc3ccc(C(F)(F)F)cc3nc2-c2ccccc2)cc1 | – | > 100 µM | > 100 µM | > 100 µM | > 100 µM | > 100 µM | > 100 µM | > 100 µM | > 100 µM | – | – | – | – | – | – | – | –
6 | Fc1ccc(C2CC(c3cccc(Nc4ccncc4)c3)=NN2c2cc(Cl)cc(Cl)c2)cc1 (configuration not stated) | 3.63 µM | – | – | – | 3.26 µM | 4.37 µM | – | 3.16 µM | 4.92 µM | 1.88 µM | 1.76 µM | 1.95 µM | 1.73 µM | 2.06 µM | – | – | –
7 | COc1ccc(/C=C2\CC3C4CC=C5C[C@@H](O)CC[C@]5(C)C4CC[C@]3(C)\C2=N\O)cc1OC (some centres not stated) | > 100 µM | > 100 µM | > 100 µM | > 100 µM | > 100 µM | > 100 µM | > 100 µM | > 100 µM | – | – | – | – | – | – | – | – | –
8 | CN(C)CCOC(=O)c1ccc(N)cc1 | > 100 µM | > 100 µM | > 100 µM | > 100 µM | > 100 µM | > 100 µM | 67.4 µM | > 100 µM | – | – | – | – | – | – | – | – | –
9 | O=C1CSC2=NCC3(NN12)c1ccccc1-c1ccccc13 | > 10 µM | > 10 µM | > 10 µM | > 10 µM | > 10 µM | > 10 µM | > 10 µM | – | > 10 µM | – | – | – | – | – | – | – | –
10 | S=c1nc2[nH]c3ccc(Br)cc3c2n[nH]1 | > 100 µM | – | > 100 µM | > 100 µM | > 100 µM | 44.4 µM | > 100 µM | > 100 µM | 69.3 µM | – | – | – | – | – | – | – | –
11 | O=C1OC2(C(F)(F)F)Oc3ccccc3CN2C12CCCCC2 (configuration not stated) | > 100 µM | 91.9 µM | – | 52.6 µM | 90.8 µM | > 100 µM | 90.8 µM | > 100 µM | 74.8 µM | – | – | – | – | – | – | – | –
12 | Cc1cn(CC2=NCCCN2)c(=O)[nH]c1=O | > 100 µM | > 100 µM | > 100 µM | > 100 µM | – | > 100 µM | > 100 µM | > 100 µM | > 100 µM | – | – | – | – | – | – | – | –
13 | O=C(Nc1c(Cl)cc([N+](=O)[O-])cc1Cl)C(=O)C1C(=O)NC(=S)NC1=O | > 100 µM | > 100 µM | > 100 µM | > 100 µM | > 100 µM | > 100 µM | > 100 µM | > 100 µM | – | – | – | – | – | – | – | – | –
14 | COc1ccccc1NC(=S)N/N=C(/C)c1ccccn1 | – | 36.7 µM | > 100 µM | > 100 µM | > 100 µM | > 100 µM | – | > 100 µM | – | – | – | – | – | – | – | – | –
15 | CCOC(=O)C(NC(=O)CC(C)C)(Nc1ccc(C(F)(F)F)cc1)C(F)(F)F (configuration not stated) | – | > 100 µM | > 100 µM | > 100 µM | 55.6 µM | > 100 µM | > 100 µM | > 100 µM | > 100 µM | – | – | – | – | – | – | – | –
16 | CCOC(=O)/C(C#N)=C/c1ccc(CO)o1 | – | > 100 µM | > 100 µM | > 100 µM | > 100 µM | > 100 µM | > 100 µM | > 100 µM | > 100 µM | – | – | – | – | – | – | – | –
17 | CC(NC(=O)OCc1ccccc1)NC(=O)C(CC(=O)OC(C)(C)C)NC(=O)OC(C)(C)C (configuration not stated) | > 100 µM | > 100 µM | > 100 µM | > 100 µM | > 100 µM | > 100 µM | > 100 µM | > 100 µM | – | – | – | – | – | – | – | – | –
18 | O=C(NNc1cn[nH]c(=O)c1Cl)/C(=C/c1ccc2c(c1)OCO2)NC(=O)c1ccccc1 | 49.1 µM | > 100 µM | – | – | > 100 µM | > 100 µM | > 100 µM | > 100 µM | – | – | – | – | – | – | – | – | –
19 | CCOC(=O)CCc1c(C(=O)OCC)[nH]c(/C=C2\NC(=O)C(C)=C2CC)c1C | – | 27.6 µM | – | > 100 µM | > 100 µM | > 100 µM | > 100 µM | 86.3 µM | – | – | – | – | – | – | – | – | –
20 | CCc1nn(S(=O)(=O)c2ccc(C)cc2)c2c1CS(=O)(=O)CC2 | > 100 µM | > 100 µM | 87.7 µM | > 100 µM | > 100 µM | > 100 µM | – | > 100 µM | – | – | – | – | – | – | – | – | –
21 | CCOC(=O)c1c2c(n3ccc(NC(=O)OC(C)(C)C)cc13)C(=O)c1ncccc1C2=O | 2.02 µM | 0.7 µM | 4.65 µM | – | – | 0.202 µM | 0.757 µM | 1.65 µM | – | 0.179 µM | – | 0.0174 µM | 0.0971 µM | – | 0.143 µM | 1.21 µM | 0.174 µM
22 | CN1C/C(=C\c2ccc(Cl)cc2)C(=O)/C(=C/c2ccc(Cl)cc2)C1 | – | > 28.5 µM | > 100 µM | > 100 µM | 2.39 µM | – | 8.7 µM | > 100 µM | 5.47 µM | – | – | – | – | – | – | – | –
23 | CCOC(=O)c1c2c(n(-c3ccc(OC)cc3)c1C)C(=O)C(=O)c1ccccc1-2 | 4.32 µM | 3.46 µM | 6.32 µM | – | 3.61 µM | 6.24 µM | 4.12 µM | 3.46 µM | – | – | – | – | – | – | – | – | –
24 | CO/C(=N\N=C\c1ccc(Cl)cc1Cl)c1ccncc1 | > 10 µM | > 10 µM | – | > 10 µM | > 10 µM | > 10 µM | > 10 µM | > 10 µM | > 10 µM | – | – | – | – | – | – | – | –
25 | O=C1CCC2(CC1CCSc1ccccc1)OCCO2 (configuration not stated) | – | > 100 µM | > 100 µM | > 100 µM | > 100 µM | > 100 µM | > 100 µM | > 100 µM | > 100 µM | – | – | – | – | – | – | – | –

Reference: PubChem BioAssay (NCI)
